Columns and labels:
HOXA and CDX genes = assay: RT-PCR of HOXA and CDX genes in differentiating hESC cultures supplemented with SB, CHIR or SB/CHIR; format: cell-based, human; details: added from differentiation days 2 to 4; RT-PCR at d4 and d7
Protocol: Total RNA was prepared from ES cells and dissociated EBs using the Qiagen RNeasy kit or the Bioline Isolate II RNA Mini Kit according to the manufacturers' instructions. cDNA was reverse transcribed using random hexamer priming and Superscript III (Invitrogen) or Tetro (Bioline) cDNA synthesis kits as specified by the manufacturer. Human RUNX1 isoform specific primers (Table 1) were based on those designed for mouse Runx1 previously. For other genes, TaqMan gene expression probes and reagents (Applied Biosystems) were used for quantitative real-time PCR analysis and GAPDH was used as the reference gene to normalize data.
The HES3 and H9 human embryonic stem cell lines used in these studies were obtained from ES Cell International (now owned by Biotime Inc) and WiCell. The human ESC work was approved by the Monash Medical Centre and Royal Children's Hospital Human Research Ethics Committees. Culture and enzymatic passaging of hESC lines was performed as reported in Ng et al. Nature Protocols 3, 768-776 (2008). […] Brightfield and fluorescence images comparing RUNX1C^GFP/w with RUNX1C^GFP/GFP cell cultures shown in FIG. 1b were representative of 3 independent experiments. […]

[1] = system: anterior and posterior HOXA genes; assay: HOXA gene expression in hPSCs with EC23 and/or SB CHIR (FIG. 29); format: cell-based, human; details: d2-4
Protocol: hPSCs were differentiated in medium supplemented with CHIR99021, BMP4, VEGF, SCF, ACTIVIN A and FGF2 (denoted CH BVSAF in FIG. 29) from d0-4, or with an additional pulse of SB431542 and CHIR99021 (denoted SB CHIR in FIG. 29) from d2-4. Cultures also were treated with the retinoic acid analogue EC23 at 0, 10^−5 M or 10^−7 M concentrations from d2-4 (denoted 0, 10-5 and 10-7, respectively in FIG. 29). […] Gene expression was normalized to GAPDH and is shown in arbitrary units in FIG. 29.

| Compound | HOXA gene expression compared with control cultures (HOXA and CDX genes) | effectiveness on HOXA gene induction ([1]; 10^−5 M) | effectiveness on HOXA gene induction ([1]; 10^−7 M) |
| --- | --- | --- | --- |
| NC(=O)c1ccc(-c2nc(-c3ccc4c(c3)OCO4)c(-c3ccccn3)[nH]2)cc1 [SB, SB431542] | increased HOXA3, HOXA7 and HOXA9 expression |  |  |
| Cc1c[nH]c(-c2cnc(NCCNc3ccc(C#N)cn3)nc2-c2ccc(Cl)cc2Cl)n1 [CHIR, CHIR99021] | increased HOXA9 and HOXA10 expression |  |  |
| CC1(C)CCC(C)(C)c2cc(C#Cc3ccc(C(=O)O)cc3)ccc21 [EC23] |  | effective | effective |
